Measurements from publication PMC6523162 (Metabolites, 2019).
“And” between values parts separate entries of the source, which are not always exact repeats. Equal entries are not always repeated.

What was measured:
[1] = system: nitric oxide production in LPS-stimulated BV-2 murine microglia; experiment: Nitric oxide quantification (Griess assay) in LPS-stimulated BV-2; type: cell-based; conditions: for Mean Diff., LPS (1 μg/mL) vs. compound, NOS production: Tukey's multiple comparisons test; for nitric oxide concentration: 10 μM compound + LPS 1 μg/mL
Protocol: (§1) As previously published, BV-2 cells were seeded at a density of 100,000 cells/mL in 24-well plates. […] Media were collected, aliquoted for nitric oxide and cytokine analysis.
Nitric oxide was detected in BV-2 culture media following the stimulation of LPS for 24 h from the previously described experiment by way of the Griess Assay (Promega, Madison WI), according to the manufacturer’s protocol.

[2] = system: TNF-α release from LPS-stimulated BV-2 murine microglia; experiment: TNF-α ELISA in LPS-stimulated BV-2 media; type: cell-based; conditions: for Mean Diff., LPS (1 μg/mL) vs. compound, TNF-α: Tukey's multiple comparisons test; for effect on TNF-α production (in words): 20 μM and 10 μM, compared to LPS-induced treatment; for reduction of TNF-α compared to LPS: LPS 1 μg/mL
Protocol: as §1
(§2) IL-6 and TNF-α were measured from BV-2 media using Enzyme Linked Immunosorbent Assay (ELISA) provided by Biolegend (San Diego, CA, USA).

[3] = PAMPA gut passive permeability; type: in vitro ADME; conditions: for -log Pe: PAMPA gut, 4 h
Protocol: (§3) Parallel Artificial Membrane Permeability Assay was performed to analyze both blood–brain barrier (BBB) and gut passive permeability. All materials for PAMPA were purchased from Pion, Inc (Billerica, MA, USA). Both the gut and BBB assays were performed according to the manufacturer’s instructions. Briefly, test compounds and standards were prepared at 10 mM concentrations in DMSO. For the gut assay, Prisma HT buffer was adjusted to pHs 5, 6.2, and 7.4 by adding 0.5 M NaOH. In the deepwell plate provided by Pion, 1 mL of each pH-adjusted buffer was added to separate wells. For each pH, 5 µL of the sample was added to the 1 mL of buffer then mixed thoroughly with a pipette, diluting the sample to a final concentration of 50 µM. Next, 200 µl of the diluted sample was added to the donor (bottom) plate from the Pion sandwich assay, 5 µL of GIT lipid matrix was added to the membrane on the bottom of the acceptor plate, and 200 µL of acceptor sink buffer was added in each well of the acceptor plate. The sandwich was assembled, and the plate incubated at room temperature for 4 h undisturbed. In BBB assays, compounds (10 mM) were diluted to final concentrations of 50 µM in Prisma HT Buffer (pH = 7.4). The PAMPA sandwich was created with the donor (bottom), BBB artificial membrane, and brain sink buffer as the acceptor (top). The assay was performed for 1 h at room temperature with shaking (60 µm) using the manufacturer-supplied GIT Box. After incubation, the UV profiles of the donor and acceptor plates were read on the SpectraMax plate reader connected to the PAMPA software. PAMPA software calculated the –log Pe values for each compound and standard using the UV profiles of the donor and acceptor plates.

[4] = system: nitric oxide production in LPS-stimulated BV-2 murine microglia; experiment: Nitric oxide quantification (Griess assay) in LPS-stimulated BV-2; type: cell-based; conditions: 1 h pre-treatment, LPS 1 μg/mL 23 h
[5] = PAMPA BBB passive permeability; type: in vitro ADME; conditions: for -log Pe: PAMPA BBB, pH 7.4, 50 µM, 1 h; for PAMPA BBB permeability (in words): pH 7.4
Protocol: as §3

[6] = system: IL-6 release from LPS-stimulated BV-2 murine microglia; experiment: IL-6 ELISA in LPS-stimulated BV-2 media; type: cell-based; conditions: for Mean Diff., LPS (1 μg/mL) vs. compound, IL-6: Tukey's multiple comparisons test; for reduction of IL-6 production compared to LPS: LPS 1 μg/mL; for IL-6 concentration: 10 μM compound + LPS 1 μg/mL
Protocol: as §1, §2

In the case of “lipopolysaccharide [LPS, reference compound]”, the “nitric oxide species concentration” value ([1]; LPS 1 μg/mL alone) is reported as 41.5 ± 5.6 µM and 51.01 µM and the TNF-α concentration ([2]; LPS 1 μg/mL alone) is reported as 687.7 ± 8.0 pg/mL and 518.4 pg/mL.

For `Oc1ccc([C@H]2COc3cc(O)ccc3C2)cc1` [EQ, equol], the “-log Pe” value ([3]; pH 5, 50 µM) was 4.35 ± 0.11, the “-log Pe” value ([3]; pH 6.2, 50 µM) was 4.20 ± 0.02 and the “reduction of nitric oxide compared to LPS alone” value (from here on “reduction of nitric oxide”) ([4]; 20 μM) was 22%. The “Mean Diff., LPS (1 μg/mL) vs. compound, NOS production” value ([1]; 10 μM) was 6.216, the “Mean Diff., LPS (1 μg/mL) vs. compound, NOS production” value ([1]; 20 μM) was 8.47 and the “-log Pe” value [5] was 3.52 ± 0.20. The “PAMPA BBB permeability (in words)” value [5] was “high permeability”, the “Mean Diff., LPS (1 μg/mL) vs. compound, IL-6” value ([6]; 10 μM) was 10.39 and the “Mean Diff., LPS (1 μg/mL) vs. compound, IL-6” value ([6]; 20 μM) was 19.48. For the same compound, the “Mean Diff., LPS (1 μg/mL) vs. compound, TNF-α” value ([2]; 10 μM) was 57.03, the “effect on TNF-α production (in words)” value [2] was “similar, albeit less potent, protective abilities” and the “Mean Diff., LPS (1 μg/mL) vs. compound, TNF-α” value ([2]; 20 μM) was 72.78.

In the case of `CNC(=C[N+](=O)[O-])NCCSCc1ccc(CN(C)C)o1` [Ranitidine, ranitidine, reference compound], the “PAMPA gut permeability (in words)” value ([3]; pH 5.0, 6.2 and 7.4) is reported as “low”.

For `O=c1c(-c2ccc(O)cc2)coc2cc(O)cc(O)c12` [GEN, genistein], the “reduction of nitric oxide” value ([4]; 10 μM) was 38%, the “reduction of nitric oxide” value ([4]; 20 μM) was 68% and the “Mean Diff., LPS (1 μg/mL) vs. compound, NOS production” value ([1]; 10 μM) was 14.41. The “Mean Diff., LPS (1 μg/mL) vs. compound, NOS production” value ([1]; 20 μM) was 26.17, the “-log Pe” value [5] was 4.26 ± 0.16 and the “PAMPA BBB permeability (in words)” value [5] was “Intermediate BBB permeability”. The “reduction of IL-6 production compared to LPS” value (from here on “reduction of IL-6 production”) ([6]; 10 μM) was 34.0%, the “Mean Diff., LPS (1 μg/mL) vs. compound, IL-6” value ([6]; 10 μM) was 35.15 and the “reduction of IL-6 production” value ([6]; 20 μM) was 80.4%. The “Mean Diff., LPS (1 μg/mL) vs. compound, IL-6” value ([6]; 20 μM) was 83.38, the “reduction of TNF-α compared to LPS” value ([2]; 10 μM) was 16.6% and the “Mean Diff., LPS (1 μg/mL) vs. compound, TNF-α” value ([2]; 10 μM) was 113.8. The “reduction of TNF-α compared to LPS” value ([2]; 20 μM) was 29.1% and the “Mean Diff., LPS (1 μg/mL) vs. compound, TNF-α” value ([2]; 20 μM) was 199.8.

For `COc1cc(C[C@@H](CO)[C@H](CO)Cc2ccc(O)c(OC)c2)ccc1O` [SECO, secoisolariciresinol], the “PAMPA gut permeability (in words)” value ([3]; pH 5.0, 6.2 and 7.4) was “moderate permeability”, the “reduction of nitric oxide” value ([4]; 10 μM) was “approximately 9.13%” and the nitric oxide concentration [1] was 46.35 µM. The “Mean Diff., LPS (1 μg/mL) vs. compound, NOS production” value ([1]; 10 μM) was 4.653, the “PAMPA BBB permeability (in words)” value [5] was “low permeability” and the IL-6 concentration [6] was 672.8 pg/mL. For the same compound, the “reduction of IL-6 production” value ([6]; 10 μM) was 1.05%, the “Mean Diff., LPS (1 μg/mL) vs. compound, IL-6” value ([6]; 10 μM) was -7.108 and the TNF-α concentration ([2]; 10 μM compound + LPS 1 μg/mL) was 497.8 pg/mL. For the same compound, the “reduction of TNF-α compared to LPS” value ([2]; 10 μM) was 3.97% and the “Mean Diff., LPS (1 μg/mL) vs. compound, TNF-α” value ([2]; 10 μM) was 20.62.

In the case of `O=C1OC[C@H](Cc2cccc(O)c2)[C@H]1Cc1cccc(O)c1` [EL, enterolactone], the “-log Pe” value ([3]; pH 5, 50 µM) is reported as 4.27 ± 0.05, the “-log Pe” value ([3]; pH 6.2, 50 µM) is reported as 4.37 ± 0.02 and the “reduction of nitric oxide” value ([4]; 10 μM) is reported as ~30.07%. For the same compound, the nitric oxide concentration [1] was 35.67 µM, the “Mean Diff., LPS (1 μg/mL) vs. compound, NOS production” value ([1]; 10 μM) was 15.34 and the “-log Pe” value [5] was 3.97 ± 0.14. The “PAMPA BBB permeability (in words)” value [5] was “high permeability”, the IL-6 concentration [6] was 489.9 pg/mL and the “reduction of IL-6 production” value ([6]; 10 μM) was ~26.41%. The “Mean Diff., LPS (1 μg/mL) vs. compound, IL-6” value ([6]; 10 μM) was 175.8, the TNF-α concentration ([2]; 10 μM compound + LPS 1 μg/mL) was 365.6 pg/mL and the “reduction of TNF-α compared to LPS” value ([2]; 10 μM) was 29.47%. For the same compound, the “Mean Diff., LPS (1 μg/mL) vs. compound, TNF-α” value ([2]; 10 μM) was 152.8.

For `OC[C@H](Cc1cccc(O)c1)[C@H](CO)Cc1cccc(O)c1` [ED, enterodiol], the “PAMPA gut permeability (in words)” value ([3]; pH 5.0, 6.2 and 7.4) was “lowest permeability of all test compounds”, the “reduction of nitric oxide” value ([4]; 10 μM) was ~8.54% and the nitric oxide concentration [1] was 46.65 µM. For the same compound, the “Mean Diff., LPS (1 μg/mL) vs. compound, NOS production” value ([1]; 10 μM) was 4.354, the “PAMPA BBB permeability (in words)” value [5] was “low permeability” and the IL-6 concentration [6] was 690.6 pg/mL. For the same compound, the “reduction of IL-6 production” value ([6]; 10 μM) was “approximately 3.74%”, the “Mean Diff., LPS (1 μg/mL) vs. compound, IL-6” value ([6]; 10 μM) was -24.9 and the TNF-α concentration ([2]; 10 μM compound + LPS 1 μg/mL) was 515.8 pg/mL. For the same compound, the “reduction of TNF-α compared to LPS” value ([2]; 10 μM) was 0.5% and the “Mean Diff., LPS (1 μg/mL) vs. compound, TNF-α” value ([2]; 10 μM) was 2.638.

With `O=c1c(-c2ccc(O)cc2)coc2cc(O)ccc12` [DAI, daidzein] the “PAMPA gut permeability (in words)” value ([3]; pH 5.0, 6.2 and 7.4) was “most permeable at pHs 5 and 6.2”, the “reduction of nitric oxide” value ([4]; 20 μM) was 24% and the “Mean Diff., LPS (1 μg/mL) vs. compound, NOS production” value ([1]; 10 μM) was 4.129. The “Mean Diff., LPS (1 μg/mL) vs. compound, NOS production” value ([1]; 20 μM) was 9.223, the “Mean Diff., LPS (1 μg/mL) vs. compound, IL-6” value ([6]; 10 μM) was 17.26 and the “Mean Diff., LPS (1 μg/mL) vs. compound, IL-6” value ([6]; 20 μM) was 20.68. The “Mean Diff., LPS (1 μg/mL) vs. compound, TNF-α” value ([2]; 10 μM) was 57.91, the “effect on TNF-α production (in words)” value [2] was “similar, albeit less potent, protective abilities” and the “Mean Diff., LPS (1 μg/mL) vs. compound, TNF-α” value ([2]; 20 μM) was 70.55.

In the case of `Cc1cc(=O)n(-c2ccccc2)n1C` [Antipyrine, reference compound], the “PAMPA gut permeability (in words)” value ([3]; pH 5) is reported as “medium”.

With `CC(C(=O)O)c1cccc(C(=O)c2ccccc2)c1` (stereo not drawn) [Ketoprofen, ketoprofen, reference compound] the “PAMPA gut permeability (in words)” value ([3]; pH 5.0, 6.2 and 7.4) was “variable permeability with pH change”.
